In patent US10246425B2, “3,5-diamino-6-chloro-N-(N-(4-phenylbutyl)carbamimidoyl) pyrazine-2-carboxamide compounds” (Parion Sciences, Inc., priority 2012, dated 2019):
Counter-ions that a name gives are not always drawn.

System: human bronchial epithelial (HBE) cells
Test: Airway surface liquid drug (ASL) clearance and metabolism by human airway epithelium
Format: in vitro ADME
Conditions: Table 4: HBE cells, 25 μL of 25 μM apical, 2 h, mean ± SD; for % of Initial Drug Mass on Apical Side (Parent and metabolite, 2 h): 37° C.
Procedure: Assay 3. Airway Surface Liquid Drug (ASL) Clearance and Metabolism by Human Airway Epithelium
The disappearance of Compound II-d from the apical surface and airway epithelial metabolism were assessed in human bronchial epithelial (HBE) cells (Table 3). In these experiments 25 μL of a 25 μM solution of ENaC blocker was added to the apical surface of HBE cells grown at an air/liquid interface, and the drug concentration in the apical and basolateral compartment was measured over 2 h by UPLC.
Therefore, the compounds of Formula (A) have a longer half-life on mucosal surfaces compared to these know compounds as evidenced by the data shown in Table 4. The disappearance of Compound II-d from the apical surface and airway epithelial metabolism were assessed in HBE and compared to Comparative Example 1 (Table 4). In these experiments 25 μL of a 25 μM solution of ENaC blocker was added to the apical surface of HBE cells grown at an air/liquid interface, and the drug concentration in the apical and basolateral compartment was measured over 2 h by UPLC.

Structure (SMILES)	% of Apical Mass as Metabolites (2 h)	% of Initial Apical Mass on Basolateral Side (2 h) [%]	% on Basolateral Side as Metabolites (2 h)	% of Initial Drug Mass on Apical Side (Parent and metabolite, 2 h) [%]
CCCCCCN(CCCN[C@@H](CCc1ccc(CCCCNC(=N)NC(=O)c2nc(Cl)c(N)nc2N)cc1)C(N)=O)C[C@H](O)[C@@H](O)[C@H](O)[C@H](O)CO [III-d, 3,5-diamino-N—(N-(4-(4-((S)-4-amino-3-(3-(hexyl((2S,3R,4R,5R)-2,3,4,5,6-pentahydroxyhexyl)amino)propylamino)-4-oxobutyl)phenyl)butyl)carbamimidoyl)-6-chloropyrazine-2-carboxamide]	none	3.5 ± 2.2	None	–
CCCCCCN(CCCN[C@@H](Cc1ccc2cc(CCCCNC(=N)NC(=O)c3nc(Cl)c(N)nc3N)ccc2c1)C(N)=O)C[C@H](O)[C@@H](O)[C@H](O)[C@H](O)CO [IX-m, 3,5-diamino-N—(N-(4-(6-((S)-3-amino-2-(3-(hexyl((2S,3R,4R,5R)-2,3,4,5,6-pentahydroxyhexyl)amino)propylamino)-3-oxopropyl)naphthalen-2-yl)butyl)carbamimidoyl)-6-chloropyrazine-2-carboxamide]	None	1.1 ± 0.2	None	–
Cl.N=C(NCCCCc1ccc(CC[C@H](NCCCN(C[C@H](O)[C@@H](O)[C@H](O)[C@H](O)CO)C[C@H](O)[C@@H](O)[C@H](O)[C@H](O)CO)C(N)=O)c2ccccc12)NC(=O)c1nc(Cl)c(N)nc1N [V-d, 3,5-diamino-N—(N-(4-(4-((S)-4-amino-3-(3-(bis((2S,3R,4R,5R)-2,3,4,5,6-pentahydroxyhexyl)amino)propylamino)-4-oxobutyl)naphthalen-1-yl)butyl)carbamimidoyl)-6-chloropyrazine-2-carboxamide hydrochloride]	none	9.3 ± 0.86	None	–
CCCCCCN(CCCN[C@@H](CCc1ccc(CCCCNC(=N)NC(=O)c2nc(Cl)c(N)nc2N)c2ccccc12)C(N)=O)C[C@H](O)[C@@H](O)[C@H](O)[C@H](O)CO [VI-d, 3,5-diamino-N—(N-(4-(4-((S)-4-amino-3-(3-(hexyl((2S,3R,4R,5R)-2,3,4,5,6-pentahydroxyhexyl)amino)propylamino)-4-oxobutyl)naphthalen-1-yl)butyl)carbamimidoyl)-6-chloropyrazine-2-carboxamide hydrochloride]	None	1.2 ± 0.5	None	–
N=C(NCCCCc1ccc(C[C@H](NCCCN(C[C@H](O)[C@@H](O)[C@H](O)[C@H](O)CO)C[C@H](O)[C@@H](O)[C@H](O)[C@H](O)CO)C(N)=O)c2ccccc12)NC(=O)c1nc(Cl)c(N)nc1N [VII-ee, 3,5-diamino-N—(N-(4-(4-((S)-3-amino-2-(3-(bis((2S,3R,4R,5R)-2,3,4,5,6-pentahydroxyhexyl)amino)propylamino)-3-oxopropyl)naphthalen-1-yl)butyl)carbamimidoyl)-6-chloropyrazine-2-carboxamide]	None	6.4 ± 2.1	None	–
CCCCCCN(CCCN[C@@H](Cc1ccc(CCCCNC(=N)NC(=O)c2nc(Cl)c(N)nc2N)c2ccccc12)C(N)=O)C[C@H](O)[C@@H](O)[C@H](O)[C@H](O)CO [VIII-d, 3,5-diamino-N—(N-(4-(4-((S)-3-amino-2-(3-(hexyl((2S,3R,4R,5R)-2,3,4,5,6-pentahydroxyhexyl)amino)propylamino)-3-oxopropyl)naphthalen-1-yl)butyl)carbamimidoyl)-6-chloropyrazine-2-carboxamide]	None	2.0 ± 0.8	None	–
N=C(NCCCCc1ccc2cc(C[C@H](NCCCN(C[C@H](O)[C@@H](O)[C@H](O)[C@H](O)CO)C[C@H](O)[C@@H](O)[C@H](O)[C@H](O)CO)C(N)=O)ccc2c1)NC(=O)c1nc(Cl)c(N)nc1N [X-d, 3,5-diamino-N—(N-(4-(6-((S)-3-amino-2-(3-(bis((2S,3R,4R,5R)-2,3,4,5,6-pentahydroxyhexyl)amino)propylamino)-3-oxopropyl)naphthalen-2-yl)butyl)carbamimidoyl)-6-chloropyrazine-2-carboxamide]	None	5.0 ± 3.3	None	–
N=C(NCCCCc1ccc(C[C@H](NCCCN(C[C@H](O)[C@@H](O)[C@H](O)[C@H](O)CO)C[C@H](O)[C@@H](O)[C@H](O)[C@H](O)CO)C(N)=O)c2c1CCCC2)NC(=O)c1nc(Cl)c(N)nc1N [XI-cc, 3,5-diamino-N—(N-(4-(4-((S)-3-amino-2-(3-(bis((2S,3R,4R,5R)-2,3,4,5,6-pentahydroxyhexyl)amino)propylamino)-3-oxopropyl)-5,6,7,8-tetrahydronaphthalen-1-yl)butyl)carbamimidoyl)-6-chloropyrazine-2-carboxamide]	None	1.8 ± 0.3	None	–
CCCCCCN(CCCN[C@@H](Cc1ccc(CCCCNC(=N)NC(=O)c2nc(Cl)c(N)nc2N)c2c1CCCC2)C(N)=O)C[C@H](O)[C@@H](O)[C@H](O)[C@H](O)CO [XII-d, 3,5-diamino-N—(N-(4-(4-((S)-3-amino-2-(3-(hexyl((2S,3R,4R,5R)-2,3,4,5,6-pentahydroxyhexyl)amino)propylamino)-3-oxopropyl)-5,6,7,8-tetrahydronaphthalen-1-yl)butyl)carbamimidoyl)-6-chloropyrazine-2-carboxamide]	None	9.6 ± 6.3	None	–
N=C(NCCCCc1ccc2cc(CC[C@H](NCCCN(C[C@H](O)[C@@H](O)[C@H](O)[C@H](O)CO)C[C@H](O)[C@@H](O)[C@H](O)[C@H](O)CO)C(N)=O)ccc2c1)NC(=O)c1nc(Cl)c(N)nc1N [XIII-bb, 3,5-diamino-N—(N-(4-(6-((S)-4-amino-3-(3-(bis((2S,3R,4R,5R)-2,3,4,5,6-pentahydroxyhexyl)amino)propylamino)-4-oxobutyl)naphthalen-2-yl)butyl)carbamimidoyl)-6-chloropyrazine-2-carboxamide]	None	4.2 ± 1.9	None	–
CCCCCCN(CCCN[C@@H](CCc1ccc2cc(CCCCNC(=N)NC(=O)c3nc(Cl)c(N)nc3N)ccc2c1)C(N)=O)C[C@H](O)[C@@H](O)[C@H](O)[C@H](O)CO [XIV-d, 3,5-diamino-N—(N-(4-(6-((S)-4-amino-3-(3-(hexyl((2S,3R,4R,5R)-2,3,4,5,6-pentahydroxyhexyl)amino)propylamino)-4-oxobutyl)naphthalen-2-yl)butyl)carbamimidoyl)-6-chloropyrazine-2-carboxamide]	None	0.32 ± 0.6	None	–
N=C(NCCCCc1ccc(CC[C@H](NCCCN(C[C@H](O)[C@@H](O)[C@H](O)[C@H](O)CO)C[C@H](O)[C@@H](O)[C@H](O)[C@H](O)CO)C(N)=O)c2c1CCCC2)NC(=O)c1nc(Cl)c(N)nc1N [XV-dd, 3,5-diamino-N—(N-(4-(4-((S)-4-amino-3-(3-(bis((2S,3R,4R,5R)-2,3,4,5,6-pentahydroxyhexyl)amino)propylamino)-4-oxobutyl)-5,6,7,8-tetrahydronaphthalen-1-yl)butyl)carbamimidoyl)-6-chloropyrazine-2-carboxamide]	None	1.81 ± 1.6	None	–
N=C(NCCCCc1ccc(C[C@H](NCCCN(C[C@H](O)[C@@H](O)[C@H](O)[C@H](O)CO)C[C@H](O)[C@@H](O)[C@H](O)[C@H](O)CO)C(N)=O)cc1)NC(=O)c1nc(Cl)c(N)nc1N [XVI-ee]	None	14.9 ± 1.4	None	77.7 ± 12.2
CCCCCCN(CCCN[C@@H](Cc1ccc(CCCCNC(=N)NC(=O)c2nc(Cl)c(N)nc2N)cc1)C(N)=O)C[C@H](O)[C@@H](O)[C@H](O)[C@H](O)CO [XVII-d]	None	1.9 ± 1.7	None	76.6 ± 14.7
